Data published in patent US10550094B2, “Compounds having antioxidant activity against free radicals and anti-inflammatory activity, and corresponding pharmaceutical or cosmetic compositions for skin care” (GIULIANI S.P.A., priority 2015, dated 2020).

Key:
[1] = test system: TNF-α; assay: Anti-inflammatory activity: TNF-α gene expression by qRT-PCR in LPS-treated keratinocytes; type: cell-based, human; settings: for TNF-α (relative gene expression): 10 μg/ml LPS, NCTC 2544; for Comparison vs LFS (%): TNF-α vs Control + LPS
Protocol: (§1) The immortalized line of human keratinocytes NCTC2544 is used (Perry V. P. et al., 1957), cultured in sterile flasks ([…]), incubated at 37° C. in a humid atmosphere at 5% CO2 in RPMI culture medium added with bovine fetal serum (FBS), 2 mm glutamine, 1% non-essential amino acids, in the presence of 1% penicillin and streptomycin. The 1:3 split is done every 2 days upon achieving the monolayer by washing with 1×PBS (phosphate buffer without Ca^2+ and Mg^2+) and detachment of cells with a trypsin-EDTA solution at 37° C. for 2 minutes. The cells were kept in culture in 25 cm^3 sterile flasks and incubated at 37° C. in a humid atmosphere at 5% CO2.
(§2) Negative control: untreated cells in RPMI medium added to 2.5% fetal bovine serum (FBS), 1% non-essential amino acids (NEAA), 1% of a penicillin and streptomycin mixture (Pen-Strep Mix), and kept in (12 well) 25 cm^2 culture plates at 37° C. and 5% CO2.
(§3) Positive control: cells in RPMI medium added to 2.5% fetal bovine serum (FBS), 1% non-essential amino acids (NEAA), 1% of a penicillin and streptomycin mixture (Pen-Strep Mix) and 10 μg/mL LPS (lipopolysaccharide) and kept in ([…]) 25 cm^2 culture plates at 37° C. and 5% CO2 (in the dark).
Study of the Anti-inflammatory Activity-NCTC 2544
The gene expression of the TNF-α inflammation marker was evaluated by relative quantitative RT-PCR (quantitative reverse transcription-polymerase chain reaction-qRT-PCR).
(§4) This assay involved three sequential steps: • extraction of total RNA; • retrotranscription in cDNA; • qRT-PCR.
Human keratinocytes NCTC 2544 were seeded in 12-well plates at the density of […] cells/well and incubated until reaching about 80% confluence.
Then, the cells were incubated for 16 and 24 hours with the compounds of the invention to be tested and the respective controls at the following concentrations: 13.5 μM and 27 μM, and admixed (in the well) with 10 μg/ml LPS.
(§5) The dilutions were prepared starting from 1000× stock in DMSO, sterile-filtered and using RPMI medium added to 2.5% fetal bovine serum (FBS), 1% non-essential amino acids (NEAA), 1% of a penicillin and streptomycin mixture (Pen-Strep Mix).
(§6) Cells kept in the culture medium alone (RPMI 2.5% FBS) were used as a negative control.
(§7) Cells in the culture medium alone (RPMI 2.5% FBS) and treated only with 10 μg/mL LPS were used as a positive control.
(§8) After incubation, the RNA was extracted. Total RNA was extracted from NCTC 2544 cells using the commercial kit Ribospin™ (GeneAllBiotechnology Co., LTD).
At the end of incubation with the active compounds of the invention, cells were washed with PBS (1×) and finally subjected to RNA extraction procedure. At the end of the extraction, using a spectrophotometer (Jenway UV/VIS MOD: 6715, BS-6715B0), concentrations were calculated in μg/mL of total RNA extracted at a wavelength of 260 nm.
For RT-PCR amplification, the TaqMan® probe (AppliedBiosystems) method was used. The following TYaqMan probe was used: Hs00174128_m1 (TNF-α). GAPDH: Hs99999905_m1 was used as control gene (housekeeping).
(§9) The data obtained were analyzed according to the method of 2-ΔΔCt and so it was possible to calculate the relative values of expression of the gene of interest, normalized compared to the housekeeping gene and calibrated on the control sample (untreated cells): ΔCt=ΔCttarget-housekeeping (control)−ΔCttarget-housekeeping (treated cells)
(§10) The 2^−ΔΔCt was calculated assuming an amplification efficiency of 100%.

[2] = test system: involucrin (IVL); assay: Skin barrier function protection: involucrin (IVL) gene expression by qRT-PCR in LPS-treated keratinocytes; type: cell-based, human; settings: 13.5 μM, with LPS, Control + LPS = 1.000
Protocol: as §1, §2, §3
(§11) Study of the Skin Barrier Function Protection
(§12) The gene expression of the involucrin (IVL) and fillagrin (FLG) markers was evaluated by relative quantitative RT-PCR (quantitative reverse transcription-polymerase chain reaction-qRT-PCR).
as §4
(§13) Human keratinocytes NCTC2544 were seeded in 12-well plates at the density of 0.5*10^6 cells/well and incubated until reaching about 80% confluence.
(§14) Then, the cells were incubated for 16 and 24 hours with the active compounds to be tested and the respective controls at the following concentrations: 13.5 and 27 μM, and admixed (in the well) with 10 μg/ml LPS.
as §5, §6, §7, §8
(§15) For RT-PCR amplification, the TaqMan® probe (AppliedBiosystems) method was used. The following TYaqMan probe was used: Hs00846307_s1 (IVL) and Hs00863478_g1 (FLG).
(§16) GAPDH: Hs99999905_m1 was used as control gene (housekeeping).
as §9, with “ΔΔCt=ΔCttarget-housekeeping” for “ΔCt=ΔCttarget-housekeeping”
as §10

[3] = test system: fillagrin (FLG); assay: Skin barrier function protection: filaggrin (FLG) gene expression by qRT-PCR in LPS-treated keratinocytes; type: cell-based, human; settings: 13.5 μM, with LPS, Control + LPS = 1.000
Protocol: as §1, §2, §3, §11, §12, §4, §13, §14, §5, §6, §7, §8, §15, §16
as §9, with “ΔΔCt=ΔCttarget-housekeeping” for “ΔCt=ΔCttarget-housekeeping”
as §10

[4] = HORAC Hydroxyl radical antioxidant capacity assay
Text: HORAC Assay: Hydroxyl Antioxidant Capacity In Vitro
The commercial kit “Oxiselect Hydroxyl Radical Antioxidant Capacity (HORAC) activity assay” (Cell Biolabs).
The HORAC assay esxpresses the compound antiradical capacity towards the hydroxyl radical OH′ and is based on the oxidation of a fluorescent probe by hydroxyl radicals through a hydrogen transfer process (HAT). Hydroxyl radicals are produced by a radical initiator hydroxyl and by Fenton's reagent, which quenches the fluorescent probe over time. The antioxidants present in the sample block the oxidation by the hydroxyl radical of the fluorescent probe until the antioxidant activity in the sample runs out. The remaining hydroxyl radicals destroy the fluorescence of the fluorescent probe. The antioxidant capacity of the sample is related to the fluorescence decay curve, which usually is represented as the area under the curve (AUC). The AUC is used to quantify the total antioxidant activity of the hydroxyl radical in a sample and is compared to the curve of an antioxidant standard.
The compounds of the invention were tested at the following concentrations: 13.5 μM; 27 μM, 13.5 mM; 27 mM.
For comparison purposes, also samples of the compound monofurfurylidene-2.4-sorbitol defined below by the acronym ARGB11, were in this case tested under the same two concentrations, as a reference compound according to EP0345362 mentioned above as the background art of substances with free radical inhibition activity.

[5] = higher dosages (13.5 μM and 27 μM)
[6] = lower concentrations 13.5 μM and 27 μM

| Compound | TNF-α (relative gene expression) ([1]; 13.5 μM, 16 h) | Comparison vs LFS (%) ([1]; 13.5 μM, 16 h) | TNF-α (relative gene expression) ([1]; 13.5 μM, 24 h) | Comparison vs LFS (%) ([1]; 13.5 μM, 24 h) | TNF-α (relative gene expression) ([1]; 27 μM, 16 h) | Comparison vs LFS (%) ([1]; 27 μM, 16 h) | TNF-α (relative gene expression) ([1]; 27 μM, 24 h) | Comparison vs LFS (%) ([1]; 27 μM, 24 h) | anti-inflammatory activity (TNF-α), assessment in words ([1]; higher dose) | (IVL) 16 h RQ ± SEM [2] | (FLG) 16 h RQ ± SEM [3] | HORAC (Hydroxyl Radical Antioxidant Capacity) ([4]; 13.5 μM) [μMole GAE/L] | HORAC (Hydroxyl Radical Antioxidant Capacity) ([4]; 27 μM) [μMole GAE/L] | HORAC (Hydroxyl Radical Antioxidant Capacity) ([4]; 13.5 mM) [μMole GAE/L] | HORAC (Hydroxyl Radical Antioxidant Capacity) ([4]; 27 mM) [μMole GAE/L] | HORAC activity compared with reference ARGB11 [4, 5] | HORAC activity compared with reference ARGB11 [4, 6] | anti-inflammatory activity (TNF-α), assessment in words ([1]; lower dose) |
| --- | --- | --- | --- | --- | --- | --- | --- | --- | --- | --- | --- | --- | --- | --- | --- | --- | --- | --- |
| OCC(O)C1OC(c2ccccc2)OC(CO)C1O (centres unmarked) [Sorbityl benzal, sorbityl benzal] | 0.39 | 87.93 | 0.71 | 96.50 | 0.08 | 97.62 | 0.01 | 99.97 | particularly significant | 6.646 ± 1.733 | 16.971 ± 2.987 | 31.04 | 40.110 | 308.497 | 408.795 | fully comparable activity | fully comparable activity | – |
| COc1cc(C2OC(CO)C(O)C(C(O)CO)O2)ccc1O (centres unmarked) [Sorbityl vanillinal, sorbityl vanillinal] | 0.04 | 98.64 | 0.09 | 99.57 | 0.15 | 95.44 | 0.21 | 98.95 | – | 18.347 ± 1.664 | 4.408 ± 2.683 | 70.29 | 115.422 | 3544.098 | 3261.945 | higher activity than the selected reference ARGB11 | higher than the selected reference ARGB11 | remarkable |
| O=C(OCC1OC(c2ccco2)OC(C(COC(=O)c2ccccc2)OC(=O)c2ccccc2)C1OC(=O)c1ccccc1)c1ccccc1 (centres unmarked) [Tetrabenzoyl sorbityl furfural, tetrabenzoyl sorbityl furfural] | 0.63 | 80.28 | 2.51 | 87.69 | 0.45 | 85.81 | 0.28 | 98.63 | – | 9.563 ± 1.159 | 22.864 ± 7.892 | 37.65 | 41.485 | 300.856 | 211.479 | fully comparable activity | fully comparable activity | – |
| CC(=O)OCC1OC(c2ccco2)OC(C(COC(C)=O)OC(C)=O)C1OC(C)=O (centres unmarked) [Tetracetyl sorbityl furfural, tetracetyl sorbityl furfural] | 0.35 | 89.06 | 5.75 | 71.78 | 0.28 | 91.18 | 0.12 | 99.39 | – | 57.282 ± 17.060 | 11.158 ± 5.679 | 797.50 | 171.083 | 330.960 | 428.775 | fully comparable activity | higher than the selected reference ARGB11 | – |
| OCC1OC(c2ccco2)OC(CO)C1O (centres unmarked) [Xylitil furfural, xylitil furfural] | 0.03 | 98.96 | 0.03 | 99.85 | 0.18 | 94.37 | 0.18 | 99.10 | – | 60.653 ± 14.549 | 64.669 ± 6.930 | 418.69 | 524.692 | 897.479 | 1242.582 | higher activity than the selected reference ARGB11 | higher than the selected reference ARGB11 | remarkable |
